From patent US20260256143A1, “HERBICIDAL COMPOSITION AND METHOD FOR CONTROLLING WEEDS” (Enko Chem, Inc., priority 2023, published 2026)
Read-outs that look alike come from different tables or passages of the source.

Assays:
AMATU [1] = experiment: Greenhouse post-emergence foliar test (Example 72); format: in vivo, Amaranthus rudis; settings: Amaranthus tuberculatus, 336 h, read-out: % Visual growth inhibition (AMATU)
Protocol: (§1) Compound 1 was tested at several doses for foliar weed control efficacy by itself or in combination with other herbicides.
(§2) The weed seeds were sown in 10″×20″ trays and propagated up to the transplanting stage which is 1-2 emerging leaves. One plant was then transplanted into 7×7×8 cm pots and sprayed with the compounds when plants reached the 3-4 true leaf stage for grass species or 10-15 cm for broadleaf species. The plants were propagated in a greenhouse with 26-28° C. day, 20-22° C. night temperature at 50-60%0 relative humidity and supplemental light using high pressure sodium grow lights when necessary. Three weeks after sowing, plants were sprayed with the test compound solution in a laboratory spray chamber fitted with 8003 even fan nozzle calibrated to deliver 187 L ha^−1 at 269 kPa. All treatments included the following inert ingredients in the final formulation; […] (AGRI-DEX®, Helena Agri), 2.5% Ammonium sulphate (w/v), and 0.1% Tween-20 (v/v). Plants were evaluated for percentage visual growth inhibition compared to treated control, 14 days after treatment (DAT).

ECHCG [2] = experiment: Greenhouse post-emergence foliar test (Example 72); format: in vivo; settings: Echinochloa crus-galli, 336 h, read-out: % Visual growth inhibition (ECHCG)
Protocol: as §1, §2

AMAPA [3] = experiment: Greenhouse pre-emergence residual test (Example 73); format: in vivo, Amaranthus palmeri; settings: 17-21 DAT
Protocol: (§3) Compound 1 was tested at several doses for residual weed control efficacy by itself or in combination as a tank mix with commercial herbicides. The following commercial products were used in tank mix with a 10% active emulsifiable concentrate formulation of Compound 1: S-metolachlor (Dual Magnum®, Syngenta), mesotrione (Callisto®, Syngenta), pyroxasulfone (Zidua® SC, BASF), metribuzin (Tricor DF™, United Phosphorus, Inc).
(§4) Accordingly, weed seeds were planted in 2-inch pots containing custom field soil mix (sandy loam with 3.3% organic matter, pH 7.0) and covered with a fine layer of the same soil. Three replicate pots were treated with each compound. Treatment consisting of the above formulation excluding active compound was applied as a treatment control (TC). Pots were treated with the test compound solution in a laboratory spray chamber fitted with 8003 even fan nozzles calibrated to deliver 187-200 L ha^−1 at 269 kPa. All treatments included the following inert ingredients in the final formulation; 1% Crop Oil Concentrate (v/v) (AGRI-DEX, Helena Agri) and 2.5% Ammonium sulphate (w/v). Compound 1 was incorporated into the soil by simulating rainfall equivalent to 0.2 mm using the same track sprayer. Subsequently, pots were irrigated from the bottom until weed control evaluation. Pots were placed back in the greenhouse and evaluated for percentage visual growth and germination inhibition compared to TC 17-21 days after treatment (DAT). Complete growth inhibition is represented by 100%.

AMATU [4] = experiment: as above; format: in vivo, Amaranthus rudis; settings: 17-21 DAT
Protocol: as §3, §4

KCHSC = experiment: as above; format: in vivo, Bassia scoparia; settings: 17-21 DAT
Protocol: as §3, §4

CHEAL [5] = experiment: as above; format: in vivo, Chenopodium album; settings: 17-21 DAT
Protocol: as §3, §4

DIGSA = experiment: as above; format: in vivo, Digitaria sanguinalis; settings: 17-21 DAT
Protocol: as §3, §4

ALOMY = experiment: as above; format: in vivo, Alopecurus myosuroides; settings: 17-21 DAT
Protocol: as §3, §4

ECHCG [6] = experiment: as above; format: in vivo, Echinochloa crus-galli; settings: 17-21 DAT
Protocol: as §3, §4

AMATU [7] = experiment: Field test, post-emergence foliar application (Example 70); format: in vivo, Amaranthus rudis; settings: glyphosate 1120 g a.i./ha, 2 weeks after application
Protocol: (§5) Compound 1 and Compound 1 mixed with glyphosate were tested at different field locations to evaluate the herbicides efficacy for controlling weeds by post-emergence foliar application. All herbicide treatments were applied with a backpack CO2 pressurized sprayer at 190 L/ha volume. The applications were made after the weeds emerged and reached the 5 to 12 cm size range. Herbicide treatments included Compound 1 formulated as 10% emulsified concentrate, glyphosate as a commercial formulation (Roundup Power Max, Monsanto), or a mixture of Compound 1 and glyphosate products prepared as a “tank-mix” before the field application. All herbicide field spray solution included ammonium sulfate and concentrated crop oil adjuvant to a final solution concentration of 2% and 1% respectively. Different weeds species were assessed at the separate field locations. For each species, the herbicide efficacy to control weeds, assessed as % of dead plants relative to the untreated control plots, was evaluated at 2 weeks after the herbicide application to account for weed re-growth.

CHEAL [8] = experiment: as above; format: in vivo, Chenopodium album; settings: glyphosate 1120 g a.i./ha, 2 weeks after application
Protocol: as §5

AMAPA [9] = experiment: as above; format: in vivo, Amaranthus palmeri; settings: Loc 13; glyphosate 1120 g a.i./ha; 2 weeks after application
Protocol: as §5

ABUTH = experiment: as above; format: in vivo, Abutilon theophrasti; settings: Loc 13; glyphosate 1120 g a.i./ha; 2 weeks after application
Protocol: as §5

SETFA = experiment: as above; format: in vivo, Setaria faberi; settings: Loc 15; glyphosate 1120 g a.i./ha; 2 weeks after application
Protocol: as §5

O=C(O)COc1ccc(Cl)cc1Cl [2,4-D acid, 2,4-dichlorophenoxyacetic acid]
inhibition at 280 g/ha (AMATU [1]): 89% | inhibition at 280 g/ha (ECHCG [2]): 10%

CCc1cccc(C)c1N(C(=O)CCl)[C@@H](C)COC [S-metolachlor]
Pre-emergence percent weed growth and germination inhibition AMAPA (AMAPA [3]; Dose 1000 g a.i./ha): 65% | Pre-emergence percent weed growth and germination inhibition AMATU (AMATU [4]; Dose 1000 g a.i./ha): 80% | Pre-emergence percent weed growth and germination inhibition KCHSC (KCHSC; Dose 1000 g a.i./ha): 57% | Pre-emergence percent weed growth and germination inhibition CHEAL (CHEAL [5]; Dose 1000 g a.i./ha): 50% | Pre-emergence percent weed growth and germination inhibition DIGSA (DIGSA; Dose 1000 g a.i./ha): 80% | Pre-emergence percent weed growth and germination inhibition ALOMY (ALOMY; Dose 1000 g a.i./ha): 30% | Pre-emergence percent weed growth and germination inhibition ECHCG (ECHCG [6]; Dose 1000 g a.i./ha): 93%

COc1c(Cl)ccc(Cl)c1C(=O)O [dicamba, 3,6-dichloro-2-methoxybenzoic acid]
inhibition at 280 g/ha (AMATU [1]; Dose 280 g a.i./ha, 14 DAT): 74% | inhibition at 280 g/ha (ECHCG [2]; Dose 280 g a.i./ha, 14 DAT): 5%

CP(=O)(O)CCC(N)C(=O)O (stereo not shown) [glufosinate]
inhibition at 450 g/ha (AMATU [1]): 96% | inhibition at 450 g/ha (ECHCG [2]): 41%

O=C(O)CNCP(=O)(O)O [glyphosate]
% dead AMATU (AMATU [7]; Loc 11): 88% | % dead AMATU (AMATU [7]; Loc 12): 50% | % dead AMATU (AMATU [7]; Loc 14): 32% | % dead AMATU (AMATU [7]; Loc 15): 12% | % dead CHEAL (CHEAL [8]; Loc 11): 88% | % dead CHEAL (CHEAL [8]; Loc 14): 88% | % dead AMAPA (AMAPA [9]): 13% | % dead ABUTH (ABUTH): 85% | % dead SETFA (SETFA): 100% | inhibition at 1000 g/ha (AMATU [1]): 60% | inhibition at 860 g/ha (ECHCG [2]): 84%

CS(=O)(=O)c1ccc(C(=O)C2C(=O)CCCC2=O)c([N+](=O)[O-])c1 [mesotrione]
inhibition at 105 g/ha (AMATU [1]; Dose 105 g a.i./ha, 14 DAT): 61% | inhibition at 105 g/ha (ECHCG [2]; Dose 105 g a.i./ha, 14 DAT): 95% | inhibition at 210 g/ha (AMAPA [3]; Amaranthus palmeri, pre-emergence, Dose 210 g a.i./ha, read-out: Pre-emergence percent weed growth and germination inhibition AMAPA): 53% | inhibition at 210 g/ha (AMATU [4]; Amaranthus tuberculatus, pre-emergence, Dose 210 g a.i./ha, read-out: Pre-emergence percent weed growth and germination inhibition AMATU): 75% | inhibition at 210 g/ha (KCHSC; Bassia scoparia, pre-emergence, Dose 210 g a.i./ha, read-out: Pre-emergence percent weed growth and germination inhibition KCHSC): 77% | inhibition at 210 g/ha (CHEAL [5]; Chenopodium album, pre-emergence, Dose 210 g a.i./ha, read-out: Pre-emergence percent weed growth and germination inhibition CHEAL): 100% | inhibition at 210 g/ha (DIGSA; Digitaria sanguinalis, pre-emergence, Dose 210 g a.i./ha, read-out: Pre-emergence percent weed growth and germination inhibition DIGSA): 82% | inhibition at 210 g/ha (ALOMY; Alopecurus myosuroides, pre-emergence, Dose 210 g a.i./ha, read-out: Pre-emergence percent weed growth and germination inhibition ALOMY): 20% | inhibition at 210 g/ha (ECHCG [6]; Echinochloa crus-galli, pre-emergence, Dose 210 g a.i./ha, read-out: Pre-emergence percent weed growth and germination inhibition ECHCG): 33%

CSc1nnc(C(C)(C)C)c(=O)n1N [metribuzin]
inhibition at 200 g/ha (AMAPA [3]; Amaranthus palmeri, pre-emergence, Dose 200 g a.i./ha, read-out: Pre-emergence percent weed growth and germination inhibition AMAPA): 20% | inhibition at 200 g/ha (AMATU [4]; Amaranthus tuberculatus, pre-emergence, Dose 200 g a.i./ha, read-out: Pre-emergence percent weed growth and germination inhibition AMATU): 65% | inhibition at 200 g/ha (KCHSC; Bassia scoparia, pre-emergence, Dose 200 g a.i./ha, read-out: Pre-emergence percent weed growth and germination inhibition KCHSC): 100% | inhibition at 200 g/ha (CHEAL [5]; Chenopodium album, pre-emergence, Dose 200 g a.i./ha, read-out: Pre-emergence percent weed growth and germination inhibition CHEAL): 100% | inhibition at 200 g/ha (DIGSA; Digitaria sanguinalis, pre-emergence, Dose 200 g a.i./ha, read-out: Pre-emergence percent weed growth and germination inhibition DIGSA): 13% | inhibition at 200 g/ha (ALOMY; Alopecurus myosuroides, pre-emergence, Dose 200 g a.i./ha, read-out: Pre-emergence percent weed growth and germination inhibition ALOMY): 12% | inhibition at 200 g/ha (ECHCG [6]; Echinochloa crus-galli, pre-emergence, Dose 200 g a.i./ha, read-out: Pre-emergence percent weed growth and germination inhibition ECHCG): 12%
